Literature values, collected in patent US8071772B2, “Spirolactam bicyclic CGRP receptor antagonists” (Merck Sharp & Dohme Corp., priority 2005, dated 2011).
No end group written: not given here.

Assays:
facial blood flow [1] = conditions: marmoset; Doods et al. 2000
[2] = system: diameter of the middle meningeal artery; conditions: rat, prior administration; Williamson et al. 1997
facial blood flow [3] = conditions: rat; Escott et al. 1995

For NCCCC[C@H](NC(=O)[C@@H](Cc1cc(Br)c(O)c(Br)c1)NC(=O)N1CCC(N2Cc3ccccc3NC2=O)CC1)C(=O)N1CCN(c2ccncc2)CC1 [BIBN4096BS], the “effect on increase in facial blood flow” value (facial blood flow [1]) is listed as “blocked”.

For “CGRP(8-37): a peptide CGRP antagonist; fragment of CGRP that lacks seven N-terminal amino acid residues (VTHRLAGLLSRSGGVVKNNFVPTNVGSKAF; ends and bridges not checked; UniProt P06881 90-119, looked up, fragment)”, the “effect on increase of middle meningeal artery diameter” value [2] is given as “blocked” and the “effect on increased facial blood flow” value (facial blood flow [3]) is given as “inhibited”.
